# From ChEMBL document CHEMBL5154832, “Design, Synthesis, and Proof-of-Concept of Triple-Site Inhibitors against Aminoacyl-tRNA Synthetases” (J Med Chem, 2022)
# pIC50: −log10 of the molar value.
# How the values were obtained:
# Enterococcus faecalis = assay: Antibacterial activity against Enterococcus faecalis ATCC 29212 strain assessed as inhibition of bacterial growth incubated for 8 hrs by CLSI protocol based microdilution assay; assay type: functional
# Salmonella enterica = assay: Antibacterial activity against Salmonella enterica 87 strain assessed as inhibition of bacterial growth incubated for 8 hrs by CLSI protocol based microdilution assay; assay type: functional
# [1] = biological target: T1, Threonine--tRNA ligase (Salmonella enterica) (UniProt A0A3F3IEK2); assay: Binding affinity to recombinant salmonella enterica threonyl-tRNA synthetase assessed as change in melting temperature at 0.1 mM by fluorescence-based thermal shift assay
# T1 sequence (whole entry): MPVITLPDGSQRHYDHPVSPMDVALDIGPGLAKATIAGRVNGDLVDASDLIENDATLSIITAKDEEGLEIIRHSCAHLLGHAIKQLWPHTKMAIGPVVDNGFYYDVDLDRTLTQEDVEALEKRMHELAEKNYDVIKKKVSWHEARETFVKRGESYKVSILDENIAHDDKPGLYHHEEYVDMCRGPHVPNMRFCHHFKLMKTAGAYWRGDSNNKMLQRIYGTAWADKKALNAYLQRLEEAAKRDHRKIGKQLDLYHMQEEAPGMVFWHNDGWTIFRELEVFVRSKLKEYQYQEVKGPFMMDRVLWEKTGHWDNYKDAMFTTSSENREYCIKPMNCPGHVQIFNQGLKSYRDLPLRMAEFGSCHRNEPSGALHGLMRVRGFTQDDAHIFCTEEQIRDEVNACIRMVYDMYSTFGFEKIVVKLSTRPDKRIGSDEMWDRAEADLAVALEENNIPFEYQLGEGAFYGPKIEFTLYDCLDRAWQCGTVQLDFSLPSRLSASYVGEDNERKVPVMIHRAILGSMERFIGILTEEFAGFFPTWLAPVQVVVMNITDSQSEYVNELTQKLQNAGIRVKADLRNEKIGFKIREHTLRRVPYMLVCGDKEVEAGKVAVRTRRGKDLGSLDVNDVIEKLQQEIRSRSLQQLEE
# Pseudomonas aeruginosa = assay: Antibacterial activity against Pseudomonas aeruginosa ATCC27853 strain assessed as inhibition of bacterial growth incubated for 8 hrs by CLSI protocol based microdilution assay; assay type: functional
# [2] = biological target: T1, Threonine--tRNA ligase (Salmonella enterica); assay: Inhibition of recombinant salmonella enterica threonyl-tRNA synthetase assessed as reduction in enzyme activity at 10 uM incubated for 20 min by Kinase Glo luminescence assay relative to control
# Escherichia coli [3] = assay: Antibacterial activity against Escherichia coli acraB strain assessed as inhibition of bacterial growth incubated for 8 hrs by CLSI protocol based microdilution assay; assay type: functional
# Staphylococcus aureus [4] = assay: Antibacterial activity against Staphylococcus aureus ATCC 29213 strain assessed as inhibition of bacterial growth incubated for 8 hrs by CLSI protocol based microdilution assay; assay type: functional
# Escherichia coli [5] = assay: Antibacterial activity against Escherichia coli ATCC 25922 strain assessed as inhibition of bacterial growth incubated for 8 hrs by CLSI protocol based microdilution assay; assay type: functional
# Threonine--tRNA ligase = biological target: T2, Threonine--tRNA ligase (Salmonella enterica, UniProt A0A3F3IEK2); assay: Inhibition of recombinant salmonella enterica threonyl-tRNA synthetase assessed as reduction in enzyme activity incubated for 20 min by Kinase Glo luminescence assay
# T2 sequence (A0A3F3IEK2 whole entry): T1 sequence (whole entry)
# Staphylococcus aureus [6] = assay: Antibacterial activity against Staphylococcus aureus MRSA R3708 strain assessed as inhibition of bacterial growth incubated for 8 hrs by CLSI protocol based microdilution assay; assay type: functional
Compound,MIC (Enterococcus faecalis) [µg/mL],MIC (Salmonella enterica) [µg/mL],ΔTm [1] [°C],MIC (Pseudomonas aeruginosa) [µg/mL],inhibition [2] [%],MIC (Escherichia coli [3]) [µg/mL],MIC (Staphylococcus aureus [4]) [µg/mL],MIC (Escherichia coli [5]) [µg/mL],pIC50 (Threonine--tRNA ligase),MIC (Staphylococcus aureus [6]) [µg/mL]
CN[C@H](CC(C)C)C(=O)N[C@H]1C(=O)N[C@@H](CC(N)=O)C(=O)N[C@H]2C(=O)N[C@H]3C(=O)N[C@H](C(=O)N[C@H](C(=O)O)c4cc(O)cc(O)c4-c4cc3ccc4O)[C@H](O)c3ccc(c(Cl)c3)Oc3cc2cc(c3O[C@@H]2O[C@H](CO)[C@@H](O)[C@H](O)[C@H]2O[C@H]2C[C@](C)(N)[C@H](O)[C@H](C)O2)Oc2ccc(cc2Cl)[C@H]1O [VANCOMYCIN],2,,,,,,,,,
C[C@@H](O)[C@H](N)C(=O)N[C@@H](CNC(=O)CCn1cnc2cc(Br)c(Cl)cc2c1=O)c1cccc(-c2ccc3c(c2)CNC3=O)c1,≥ 128,≥ 128,32.8,≥ 128,> 99,≥ 128,≥ 128,≥ 128,6.99,≥ 128
C[C@@H](O)[C@@H](N)C(=O)N(CCCCCn1cnc2cc(Br)c(Cl)cc2c1=O)S(=O)(=O)c1cccc(-c2ccc3c(c2)CNC3=O)c1,,,6.2,,16,,,,,
C[C@@H](O)[C@H](N)C(=O)N(CCCCOC(=O)Cn1cnc2cc(Br)c(Cl)cc2c1=O)Cc1cccc(-c2ccc3c(c2)CNC3=O)c1,,,0,,,,,,,
C[C@@H](O)[C@H](N)C(=O)N[C@H](CNC(=O)CCn1cnc2cc(Br)c(Cl)cc2c1=O)c1cccc(-c2ccc3[nH]ccc3c2)c1,,,8.4,,24,,,,,
CN[C@H](C(=O)N[C@@H](CNC(=O)CCn1cnc2cc(Cl)c(F)cc2c1=O)c1cccc(-c2ccccc2)c1)[C@@H](C)O,32,≥ 128,22.1,16,73,16,32,≥ 128,5.68,32
C[C@@H](O)[C@H](N)C(=O)N(CCCCCCn1cnc2cc(Br)c(Cl)cc2c1=O)Cc1cccc(-c2ccc3c(c2)CNC3=O)c1,64,≥ 128,23.5,64,75,64,64,≥ 128,5.25,64
C[C@@H](O)[C@H](N)C(=O)N(CCC(=O)NCCn1cnc2cc(Br)c(Cl)cc2c1=O)Cc1cccc(-c2ccc3c(c2)CNC3=O)c1,64,≥ 128,25.4,64,80,64,≥ 128,≥ 128,5.29,≥ 128

# Other lines, results leading:
MIC (Enterococcus faecalis) [µg/mL],MIC (Salmonella enterica) [µg/mL],ΔTm [1] [°C],MIC (Pseudomonas aeruginosa) [µg/mL],inhibition [2] [%],MIC (Escherichia coli [3]) [µg/mL],MIC (Staphylococcus aureus [4]) [µg/mL],MIC (Escherichia coli [5]) [µg/mL],pIC50 (Threonine--tRNA ligase),MIC (Staphylococcus aureus [6]) [µg/mL],Compound
,,7.2,,5,,,,,,CN[C@H](C(=O)N[C@H](CNC(=O)CCn1cnc2cc(Cl)c(F)cc2c1=O)c1cccc(-c2ccccc2)c1)[C@@H](C)O
≥ 128,≥ 128,29.9,≥ 128,> 99,≥ 128,≥ 128,≥ 128,6.72,≥ 128,C[C@@H](O)[C@H](N)C(=O)NS(=O)(=O)c1cccc(-c2ccc3[nH]ncc3c2)c1
≥ 128,≥ 128,28,≥ 128,> 99,≥ 128,≥ 128,≥ 128,6.71,≥ 128,C[C@@H](O)[C@H](N)C(=O)N[C@@H](CNC(=O)CCn1cnc2cc(Br)c(Cl)cc2c1=O)c1cccc(-c2ccc3[nH]ncc3c2)c1
,,12.1,,11,,,,,,C[C@@H](O)[C@H](N)C(=O)N[C@H](CNC(=O)CCn1cnc2cc(Cl)c(F)cc2c1=O)c1cccc(-c2ccccc2)c1
,,0,,,,,,,,C[C@@H](O)[C@H](N)C(=O)N(CCC(=O)N1CCN(CCn2cnc3cc(Br)c(Cl)cc3c2=O)CC1)Cc1cccc(-c2ccc3c(c2)CNC3=O)c1
,,7,,8,,,,,,C[C@@H](O)[C@H](N)C(=O)N[C@H](CNC(=O)CCn1cnc2cc(Br)c(Cl)cc2c1=O)c1cccc(-c2ccccc2)c1
,,5,,,,,,,,C[C@@H](O)[C@H](N)C(=O)N[C@H](CNC(=O)CCn1cnc2cc(Cl)c(Cl)cc2c1=O)c1cccc(-c2ccccc2)c1
